Reference: PubChem BioAssay AID624458 (Sanford-Burnham Center for Chemical Genomics, 2012)
“And” between values parts separate entries of the source, which are not always exact repeats. Identical values can stand only once. The source made the active and inactive calls.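 The calls were made as follows: active = mean IC50 of at most 10 µM; inactive = the rest.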

System: H9c2 cardiomyoblasts, H2O2 injury protection, ATPLite luminescence, 2 h
Test: protection of cardiomyoblasts from H2O2 death, SAR follow-up, H9c2 cells, set 2 (AID 624458)

Structure (SMILES): COc1cccc(CNC(=O)c2cc(-c3cc(OC)c(OC)c(OC)c3)nc3ccccc23)c1
- IC50: 4.8 µM

Structure (SMILES): COc1ccc2c(c1OC)C(=O)N1c3ccccc3C(=O)N(c3ccc(C(C)(C)C)cc3)C21 (centres undefined)
- IC50: 5.55 µM

Structure (SMILES): CC(=O)c1cccc(NC(=O)c2cc(-c3ccccc3)nc3ccccc23)c1
- IC50: 7.04 µM

Structure (SMILES): COc1cccc(-c2cc(C(=O)Nc3cccc(C(C)=O)c3)c3ccccc3n2)c1
- IC50: 6.74 µM

Structure (SMILES): COc1ccc2c(c1OC)C(=O)N1c3ccccc3C(=O)N(c3cccc(F)c3)C21 (centres undefined)
- IC50: 6.91 µM

Structure (SMILES): COc1cccc(N2C(=O)c3ccccc3N3C(=O)c4c(ccc(OC)c4OC)C23)c1 (centres undefined)
- IC50: 6.89 µM

Structure (SMILES): COc1ccc2c(c1OC)C(=O)N1c3ccccc3C(=O)N(Cc3cccc(Cl)c3)C21 (centres undefined)
- IC50: 2.96 µM

Structure (SMILES): COc1ccc2c(c1OC)C(=O)N1c3ccccc3C(=O)N(c3cccc(Cl)c3)C21 (centres undefined)
- IC50: 12.1 µM (inactive)

Structure (SMILES): COc1cc(-c2cc(C(=O)Nc3ccccc3)c3ccccc3n2)cc(OC)c1OC
- IC50: 10.1 µM (inactive)

Structure (SMILES): COc1ccc2c(c1OC)C(=O)N1c3ccccc3C(=O)N(c3ccccc3)C21 (centres undefined)
- IC50: 11 µM (inactive)

Structure (SMILES): O=C1c2ccccc2N2C(=O)c3ccccc3C2N1c1cccc(Br)c1 (centres undefined)
- IC50: > 79 µM (inactive)

Structure (SMILES): COc1ccc2c(c1OC)C(=O)N1c3ccccc3C(=O)N(c3cccc(Br)c3)C21 (centres undefined)
- IC50: 1.75 µM and 12.5 µM (inactive)

Structure (SMILES): COc1ccc2c(c1OC)C(=O)N1c3ccccc3C(=O)N(c3cccc(C(F)(F)F)c3)C21 (centres undefined)
- IC50: 13.8 µM (inactive)

Structure (SMILES): CCN(CC(=O)Nc1ccc(OC)cc1)C(=O)c1cc(-c2cc(OC)c(OC)c(OC)c2)nc2ccccc12
- IC50: 3.89 µM

Structure (SMILES): COc1ccc(NC(=O)c2cc(-c3cc(OC)c(OC)c(OC)c3)nc3ccccc23)cc1
- IC50: 7.41 µM

Structure (SMILES): COc1cc(-c2cc(C(=O)Nc3cccc(C(C)=O)c3)c3ccccc3n2)cc(OC)c1OC
- IC50: 1.41 µM and 4.26 µM

Structure (SMILES): COc1ccc(-c2cc(C(=O)Nc3cccc(C(C)=O)c3)c3ccccc3n2)cc1OC
- IC50: 8.37 µM

Structure (SMILES): COc1cccc(N2C(=O)c3ccccc3N3C(=O)c4ccccc4C23)c1 (centres undefined)
- IC50: 40.5 µM (inactive)

Structure (SMILES): COc1ccc2c(c1OC)C(=O)N1c3ccccc3C(=O)N(Cc3ccccc3Cl)C21 (centres undefined)
- IC50: 1.2 µM

Structure (SMILES): COc1cccc(CNC(=O)c2cc(-c3ccc(OC)c(OC)c3)nc3ccccc23)c1
- IC50: 5.82 µM

Structure (SMILES): COc1cc(-c2cc(C(=O)Nc3cccc(F)c3)c3ccccc3n2)cc(OC)c1OC
- IC50: 10.6 µM (inactive)

Structure (SMILES): COc1cc(-c2cc(C(=O)Nc3ccc(C(C)=O)cc3)c3ccccc3n2)cc(OC)c1OC
- IC50: 3.53 µM

Structure (SMILES): CCOC(=O)c1cccc(NC(=O)c2cc(-c3cc(OC)c(OC)c(OC)c3)nc3ccccc23)c1
- IC50: 3.06 µM

Structure (SMILES): O=C1c2ccccc2N2C(=O)c3ccccc3C2N1c1ccccc1 (centres undefined)
- IC50: 61.1 µM (inactive)

Structure (SMILES): COc1ccc2c(c1OC)C(=O)N1c3ccccc3C(=O)N(c3ccc(C)cc3)C21 (centres undefined)
- IC50: 0.959 µM

Structure (SMILES): COc1cc(-c2cc(C(=O)Nc3cccc(Cl)c3)c3ccccc3n2)cc(OC)c1OC
- IC50: 58.4 µM (inactive)

Structure (SMILES): COc1ccc2c(c1OC)C(=O)N1c3ccccc3C(=O)N(c3ccc(Br)cc3)C21 (centres undefined)
- IC50: 1.97 µM

Structure (SMILES): COc1cc(-c2cc(C(=O)Nc3cccc(C)c3)c3ccccc3n2)cc(OC)c1OC
- IC50: 18.8 µM (inactive)

Structure (SMILES): COc1cccc(NC(=O)c2cc(-c3cc(OC)c(OC)c(OC)c3)nc3ccccc23)c1
- IC50: 8.18 µM

Structure (SMILES): COc1cc(-c2cc(C(=O)Nc3cccc(C(F)(F)F)c3)c3ccccc3n2)cc(OC)c1OC
- IC50: 75.3 µM (inactive)

Structure (SMILES): COc1cc(-c2cc(C(=O)Nc3cccc(C(C)=O)c3)c3cc(Cl)ccc3n2)cc(OC)c1OC
- IC50: 6.13 µM

Structure (SMILES): COc1ccc(N2C(=O)c3ccccc3N3C(=O)c4c(ccc(OC)c4OC)C23)cc1 (centres undefined)
- IC50: 12.8 µM (inactive)

Structure (SMILES): COc1ccc2c(c1OC)C(=O)N1c3ccccc3C(=O)N(c3cccc(C)c3)C21 (centres undefined)
- IC50: 17.8 µM (inactive)

Structure (SMILES): COc1ccc(-c2cc(C(=O)Nc3cccc(C(C)=O)c3)c3ccccc3n2)cc1
- IC50: 5.6 µM
